Test results: patent US20190002585A1, “CANCER TREATMENT METHODS AND COMPOSITIONS” (The Cleveland Clinic Foundation, priority 2017, published 2019)
Where a SMILES comes first, the peptide text is derived from it. The star is where a group is joined. Cbz = O=C(OCc1ccccc1)*; CH2F = FC*

How the values were obtained:
WT A549 cells [1] = assay: Apoptosis assay (caspase 3/7), IncuCyte; type: cell-based, human
Protocol: (§1) Cells were seeded in 96-well plates and treated with Aza as above. The cells were incubated with IncuCyte™ Kinetic Caspase-3/7 Apoptosis Assay Reagent (green) according to manufacturer's protocol and with 250 nM of Syto Red dye (ThermoFisher) for 24 hours. The apoptotic index was determined by determining the total count [green Integrated Intensity (GCU×μm^2/Image)] and then normalizing by count confluence (percent) using IncuCyte software.

[2] = tested on: DU145 prostate cancer cells; assay: Cell death assay, IncuCyte real-time imaging; type: cell-based, human; details: FIG. 8
Protocol: (§2) Cell lines and viruses. Human A549 cells (ATCC® CCL-185™) validated by STR analysis were cultured in RPMI 1640 medium (Gibco) supplemented with 10% fetal bovine serum (FBS), 100U/ml penicillin and 100 μg/ml streptomycin. PC3, DU145 and C4-2 cells were grown in RPMI with 10% FBS. HAEC, BEAS 2B and BETA cells were grown in LHC-8 (Biofluids/Biosource, catalog #P141-500) supplemented with 0.1% epinehrin (Biofluids/Biosource, catalog #355-002), 3.3 mM retinoic acid (Biofluids/Biosource, catalog #348-001) and penicillin-streptomycin-fungizone (Invitogen, catalog #15240-062) and were a gift from Drs. Suzy Comhair and Serpil Erzurum (Cleveland Clinic).
(§3) Cells (20,000 per well) were seeded in 24-well plates or 8,000 cells per well in 96-well plates and treated as stated in figure legends. The cells were incubated with 250 nM Sytox-Green dye (Thermo Fisher), a nucleic acid stain that is an indicator of dead cells and which is impermeant to live cells, and 250 nM of cell permeable dye Syto™ 60-Red (ThermoFisher), which allows quantification of the total number of cells present in each field, using an IncuCyte Live-Cell Imaging System and software (Essen Instruments 2015A) for 72 hours. Cell death was measured by counting the green objects per/well (dead cells, green) and then normalizing to the total number of cells per/well (red objects) at each time point using IncuCyte software.

[3] = tested on: C4-2 prostate cancer cells; assay: Cell death assay, IncuCyte real-time imaging; type: cell-based, human; details: FIG. 8
Protocol: as §2, §3

[4] = tested on: PC3 prostate cancer cells; assay: Cell death assay, IncuCyte real-time imaging; type: cell-based, human; details: FIG. 9
Protocol: as §2, §3

RNase L KO A549 cells [5] = assay: Cell death assay, IncuCyte real-time imaging, dual dye; type: cell-based, human; set-up: AZA sensitivity: dose or concentration left out as unconfirmed
Protocol: as §2
(§4) The A549 RNase L KO cells were described previously. Additional knockout cells were generated using the CRISPR Cas9 system. The sgRNA sequences were chosen from a published database. The guide RNA sequences were synthesized as DNA oligonucleotides by IDT. Primers were annealed, phosphorylated and ligated into vector LentiCRISPR v2 (Addgene 52961) that was prepared by digestion with BsmBI. The resulting plasmids were transformed into Stbl3 chemically competent cells (Invitrogen) and grown on a bacterial culture plate at 37° C. Colonies were screened by PCR using the U6 primer and gene specific reverse primer to generate approximately 300 bp product. Positive clones were cultured and plasmid DNA was prepared and sequence verified using the U6 primer. The AKAP7 sgRNA sequences are: sgAKAP7-2 FW CACCGTGAGCGACTGGCCAAAGCAA (SEQ ID NO:1) and sgAKAP7-2 REV AAACTTGCTTTGGCCAGTCGCTCA C (SEQ ID NO:2). The PDE12 sgRNA sequences are: sgPDE12_10.FW CACCGGGATGCCTGGCAAGACGGCG (SEQ ID NO:3) and sgPDE12_10.REV AAACCGCCGTCTTGCCAGGCATCCC (SEQ ID NO:4). Cell cloning was done by limited dilution. The CRISPR vector, pLenti-sgRL-6, was used to knockout RNase L in PC3 cells as we described for RNase L KO A549 cells. To obtain the PDE12/AKAP7 DKO cells, a PDE12 knockout A549 cell line was infected with pseudo lentiviruses expression sgRNA for AKAP7 followed by single cell cloning. The PDE12/RNase L DKO cells were obtained by infecting the RNase L KO A549 cells with the pseudo lentivirus expressing sgRNA for AKAP7 followed by single cell cloning. Resulting clones were screened for knock-out of expression using Western Blots with anti-PDE12 antibody (Abcam ab87738), anti-AKAP7 (Proteintech: Cat#12591-1-AP) antibody or monoclonal antibody against human RNase L [13].
as §3

[6] = tested on: OAS (1, 2, 3) triple KO HME cells; assay: Cell death assay, IncuCyte; type: cell-based, human; details: AZA 50 μM, compared with WT HME
Protocol: (§5) Both WT and R667A RNase L have a FLAG epitope attached. Cells were lysed after 72 hr and proteins were analyzed by Western blot probed with anti-Flag M2 antibody (Sigma-Aldrich) (upper) and anti-β-actin antibody (Sigma-Aldrich) (lower). […] Dead cells and total cells were determined with an IncuCyte real-time imaging system using a dual-dye method. A minimum of three wells were treated with each experimental condition. The data are average±SD from three independent replicates. […] Three separate wells were treated with each experimental condition and a minimum of 4 image fields (>10,000 cells/well) were analyzed per well.
as §3

[7] = tested on: AKAP7-PDE12 DKO A549 cells; assay: Cell survival, IncuCyte; type: cell-based, human; details: 50 uM AZA (FIG. 11)
Protocol: as §4, with “To obtain the PDE12/AKAP7 DKO cells, a PDE12 knockout A549 cell line was infected with pseudo lentiviruses expression sgRNA for AKAP7 followed by single cell cloning. The PDE12/RNase L DKO cells were obtained by infecting the RNase L KO A549 cells with the pseudo lentivirus expressing sgRNA for AKAP7 followed by single cell cloning. Resulting clones were screened for knock-out of expression using Western Blots with anti-PDE12 antibody (Abcam ab87738), anti-AKAP7 (Proteintech: Cat#12591-1-AP) antibody or monoclonal antibody against human RNase L [13].” left out
as §3

PDE12 KO A549 cells = assay: Cell survival, IncuCyte; type: cell-based, human; details: 50 uM AZA (FIG. 11)
Protocol: as §4, with “To obtain the PDE12/AKAP7 DKO cells, a PDE12 knockout A549 cell line was infected with pseudo lentiviruses expression sgRNA for AKAP7 followed by single cell cloning. The PDE12/RNase L DKO cells were obtained by infecting the RNase L KO A549 cells with the pseudo lentivirus expressing sgRNA for AKAP7 followed by single cell cloning. Resulting clones were screened for knock-out of expression using Western Blots with anti-PDE12 antibody (Abcam ab87738), anti-AKAP7 (Proteintech: Cat#12591-1-AP) antibody or monoclonal antibody against human RNase L [13].” left out
as §3

AKAP7 KO A549 cells = assay: Cell survival, IncuCyte; type: cell-based, human; details: 50 uM AZA (FIG. 11)
Protocol: as §4, with “To obtain the PDE12/AKAP7 DKO cells, a PDE12 knockout A549 cell line was infected with pseudo lentiviruses expression sgRNA for AKAP7 followed by single cell cloning. The PDE12/RNase L DKO cells were obtained by infecting the RNase L KO A549 cells with the pseudo lentivirus expressing sgRNA for AKAP7 followed by single cell cloning. Resulting clones were screened for knock-out of expression using Western Blots with anti-PDE12 antibody (Abcam ab87738), anti-AKAP7 (Proteintech: Cat#12591-1-AP) antibody or monoclonal antibody against human RNase L [13].” left out
as §3

[8] = tested on: RNASEL KO A549 cells with knock-in of mutant RNase L (R667A); assay: Cell death assay, IncuCyte, RNase L knock-in; type: cell-based, human; details: 50 μM AZA for 72 hr
Protocol: as §5, §3

[9] = tested on: RNASEL KO A549 cells with knock-in of WT RNase L; assay: Cell death assay, IncuCyte, RNase L knock-in; type: cell-based, human; details: 50 μM AZA for 72 hr
Protocol: as §5, §3

[10] = tested on: MAVS-ADAR1-RNase L TKO A549 cells; assay: Cell survival, IncuCyte; type: cell-based, human; details: 50 μM AZA (FIG. 19)
Protocol: (§6) In FIG. 19 WT, RNase L-ADAR1 DKO, MAVS-ADAR1 DKO, MAVS-ADAR1-RNase L TKO and p150 ADAR1 isoform KO A549 cells were incubated without AZA (panel A) or with […] AZA (panels B and C). Percent survival after […] AZA treatment was calculated using an IncuCyte system. The data are average=±SD from three independent replicates. Similar data were obtained from two additional independent experiments.
as §3

[11] = tested on: MAVS-ADAR1 DKO A549 cells; assay: Cell survival, IncuCyte; type: cell-based, human; details: 50 mM AZA (FIG. 19), compared with WT cells
Protocol: as §6, §3

[12] = tested on: RNase L-ADAR1 DKO A549 cells; assay: Cell survival, IncuCyte; type: cell-based, human; details: 50 mM AZA (FIG. 19)
Protocol: as §6, §3

[13] = tested on: primary alveolar epithelial cells HAEC; assay: Cell death assay, IncuCyte live-cell imaging; type: cell-based, human; details: FIG. 7
Protocol: as §2, §3

[14] = tested on: bronchial epithelium BEAS 2B cells; assay: Cell death assay, IncuCyte live-cell imaging; type: cell-based, human; details: FIG. 7
Protocol: as §2, §3

[15] = tested on: bronchial epithelial cells BETA; assay: Cell death assay, IncuCyte live-cell imaging; type: cell-based, human; details: FIG. 7
Protocol: as §2, §3

[16] = tested on: MAVS/RNase L DKO A549 cells; assay: Apoptosis assay (caspase 3/7), IncuCyte; type: cell-based, human; details: 50 uM AZA
Protocol: as §1

RNase L KO A549 cells [17] = assay: Apoptosis assay (caspase 3/7), IncuCyte; type: cell-based, human; details: 50 uM AZA
Protocol: as §1

MAVS KO A549 cells [18] = assay: Apoptosis assay (caspase 3/7), IncuCyte; type: cell-based, human; details: 50 uM AZA, compared with WT
Protocol: as §1

ADAR1 p150 KO A549 cells = assay: Cell survival, IncuCyte; type: cell-based, human; set-up: dose or concentration left out as unconfirmed; details: AZA (FIG. 19C)
Protocol: as §3

WT A549 cells [19] = assay: Cell death assay, IncuCyte real-time imaging, dual dye; type: cell-based
Protocol: as §2, §3

[20] = tested on: MAVS-RNase L DKO A549 cells; assay: Cell death assay, IncuCyte real-time imaging; type: cell-based, human; details: concentrations up to 100 uM
Protocol: as §3, with “SytoTM” for “Syto™”, “[…])” for “2015A)”

MAVS KO A549 cells [21] = assay: Cell death assay, IncuCyte real-time imaging; type: cell-based, human; details: different doses of AZA, compared with WT
Protocol: as §3, with “SytoTM” for “Syto™”, “[…])” for “2015A)”

WT A549 cells [22] = assay: PARP cleavage, Western blot; type: cell-based, human; details: 50 uM AZA for 48 hours
Protocol: (§7) PARP cleavage was monitored in Western blots probed with [anti PAPR1 (rabbit polyclonal) (Santa Cruz Biotechnology)]. β-actin levels were monitored with 3-actin (mouse monoclonal) antibody (Sigma-Aldrich) to evaluated as a control.
(§8) Prior to lysis, cells were washed twice in cold phosphate-buffered saline (PBS). Cell extracts were prepared with lysis buffer supplemented with phosphatase/protease inhibitors followed by incubation on ice for 20 min. Lysates were subjected to centrifugation at 12,000 g for 10 min, and the supernatants collected and protein quantified by Bradford assays (BioRaD). Cell lysates ([…]) were separated on 8% or 10% SDS PAGE gels and proteins were transferred to polyvinylidene difluoride membranes (0.45 μm) (BioRaD) and probed with antibodies according to the different manufacturers' recommendations.

RNase L KO A549 cells [23] = assay: PARP cleavage, Western blot; type: cell-based, human; details: 50 uM AZA for 48 hours
Protocol: as §7, §8

CC(NC(=O)C(NC(=O)OCc1ccccc1)C(C)C)C(=O)NC(CC(=O)O)C(=O)CF (stereo not drawn) [Z-VAD] (Cbz-Val-Ala-Asp-CH2F; configuration not given here)
effect on caspase3/7 activation by AZA (WT A549 cells [1]; 50 uM Z-VAD in presence of 50 uM AZA): greatly suppressed caspase3/7 activation

Nc1ncn([C@@H]2O[C@H](CO)[C@@H](O)[C@H]2O)c(=O)n1 [AZA, 5-azacytidine]
induction of cell death by AZA [2]: sensitive
induction of cell death by AZA [3]: relatively resistant
induction of cell death by AZA [4]: sensitive
cell death (RNase L KO A549 cells [5]; 50 uM AZA): 9%
cell death (RNase L KO A549 cells [5]; 100 uM AZA): 17%
sensitivity to treatment (cell survival) (RNase L KO A549 cells [5]; AZA 25 uM, 2-5A 1 uM transfected, or both): completely resistant
AZA sensitivity (RNase L KO A549 cells [5]; AZA (FIG. 19)): AZA resistant
sensitivity to AZA [6]: relatively resistant
cell survival [7]: 17%
cell survival (PDE12 KO A549 cells): 37%
cell survival (AKAP7 KO A549 cells): 56%
sensitivity to AZA treatment [8]: did not
sensitivity to AZA treatment [9]: sensitized cells to AZA treatment
AZA sensitivity [10]: AZA resistant
AZA sensitivity [11]: enhanced AZA sensitivity
AZA sensitivity [12]: AZA resistant
AZA sensitivity [13]: resistant
AZA sensitivity [14]: resistant
AZA sensitivity [15]: resistant
caspase3/7 activation (WT A549 cells [1]; 50 uM AZA): high levels of caspase3/7 activation
caspase3/7 activation [16]: highly resistant
caspase3/7 activation (RNase L KO A549 cells [17]): resistant
caspase3/7 activation (MAVS KO A549 cells [18]): at best only a small effect in reducing caspase3/7 activation
cytotoxic effect of AZA (ADAR1 p150 KO A549 cells): highly sensitive
cell death (WT A549 cells [19]; 50 uM AZA, by 60 hours of treatment): 85%
cell survival (WT A549 cells [19]; AZA 25 uM by itself): 57%
AZA sensitivity (WT A549 cells [19]; FIG. 7, compared with normal lung epithelia): highly sensitive
cytotoxicity of AZA with ionizing radiation (WT A549 cells [19]; IR 10 Gy for 10 min, then AZA 25 μM or 12.5 μM for 50 hr): potentiates the cytotoxicity of AZA
sensitivity to AZA treatment [20]: almost completely resistant
sensitivity to AZA treatment (MAVS KO A549 cells [21]): slightly less sensitive
cleaved PARP (WT A549 cells [22]): large increase in cleaved PARP
PARP cleavage (RNase L KO A549 cells [23]): only a slight increase

Nc1ncn([C@H]2C[C@H](O)[C@@H](CO)O2)c(=O)n1 [DAC, 5-aza-2′-deoxycytidine]
effect on survival (RNase L KO A549 cells [5]; DAC, up to 70 hrs): no effect
cell survival (WT A549 cells [19]; 25 uM DAC, up to 70 hrs): 56%
cell survival (WT A549 cells [19]; 50 uM DAC, up to 70 hrs): 47%
sensitivity to DAC relative to AZA (WT A549 cells [19]; up to 70 hrs): less sensitive
